# Assay results taken from patent publication US6576784B1, “Antiviral agents” (Yeda Research and Development Co. Ltd., priority 1993, dated 2003).
# Tests used:
# [1] = Quantum yield of singlet oxygen formation on irradiation in liposomes; type: physicochemical; settings: for Quantum yields of singlet oxygen (φΔ) formed on irradiation of hypericin analogs in liposomes: soya liposomes, DPBF, light of 420 nm; for singlet oxygen formed on irradiation in liposomes (in words): irradiation with visible light, bound to liposomes
# [2] = G. Lavie et al, J.N.Y. Acad. Sci. 616:556, 1990; cited from earlier work
# [3] = tested on: Murine Friend Virus; assay: Inhibition of Friend virus splenomegaly in BALB/c mice; type: in vivo; settings: single intravenous dose within 1 hour of infection, FIG. 2
# Text: Antiretroviral Activity of Hypericin Analogs Against Murine Friend Virus in BALB/c Mice
# Mice infected with Friend virus (FV) develop a virus induced erythroleukemia whose early manifestation is a 4-8 time enlargement of the spleen size (splenomegaly) within 10 days after infection with the virus. Inhibition of splenomegaly can be used to quantitate the antiretroviral activity of various compounds in vivo. In this experiment, mice, in groups of 3, were infected with Friend virus and hypericin analogs (0.5 ml of solution in PBS) were then administered intravenously within 1 hour of the infection in a single dose of 1, 10, 50 and 150 μg per mouse.
# [4] = tested on: Murine Radiation Leukemia Virus (Rad LV); assay: Direct inactivation of murine radiation leukemia virus measured by inhibition of virus particle derived reverse transcriptase activity; type: biochemical; settings: 0.01 μg/ml; virus incubated with compound on ice 30 min; FIG. 1
# Procedure: Determination of Antiretroviral Activity of Hypericin Analogs by Monitoring the Direct Inactivation of Murine Radiation Leukemia Virus (Rad LV) Measured by the Inhibition of Virus Particle Derived Reverse Transcriptase Activity
# Virus particles released into the growth medium of the AQR lymphoblastoid cell line which is infected with and producing RadLV, were exposed to hypericin and hypericin analogs. The virus and the substrate were incubated on ice for a period of 30 min., after which time the virus was precipitated by ultracentrifugation at 40,000 rpm for 1 hour in a Beckman ultracentrifuge, and analyzed for reverse transcriptase according to Stephenson et al., Virology 48:749 (1972). The results shown in FIG. 1 are expressed as counts per minute of tritiated-thymidine incorporation.
# [5] = tested on: non-enveloped viruses such as polio and rhino viruses; settings: Tang et al., Antiviral Res. 13:313 (1990); cited from earlier work
compound,measurement,setting,value
2-Methoxyethyl Ester Analog of Hypericin [Example 4],Quantum yields of singlet oxygen (φΔ) formed on irradiation of hypericin analogs in liposomes,[1],0.35
"octahydroxy hypericin [R1, R2 = OH, reference compound]",antiviral activity (in words),[2],very weak antiviral activity
same,singlet oxygen formed on irradiation in liposomes (in words),[1],did not produce detectable yields of singlet oxygen
same,Quantum yields of singlet oxygen (φΔ) formed on irradiation of hypericin analogs in liposomes,[1],<0.01
n-butyl Ester Analog of Hypericin [Example 3],inhibition of splenomegaly,[3]; 150 μg per mouse,70%
same,"antiviral activity (inhibition of virus particle derived reverse transcriptase activity, tritiated-thymidine incorporation)",[4],antiviral activity
"Cc1cc(O)c2c(=O)c3c(O)cc(O)c4c5c(O)cc(O)c6c(=O)c7c(O)cc(C)c8c1c2c(c34)c(c78)c65 [hypericin, Hypericin, reference compound]",activity against non-enveloped viruses (in words),[5],not active
same,singlet oxygen formed on irradiation in liposomes (in words),[1],comparatively high
n-propyl Ester Analog of Hypericin [Example 2],inhibition of splenomegaly,[3]; 10 μg per mouse,47%
Methyl Ester Analog of Hypericin [Example 1],inhibition of splenomegaly,[3]; 10 μg per mouse,65%
same,"antiviral activity (inhibition of virus particle derived reverse transcriptase activity, tritiated-thymidine incorporation)",[4],antiviral activity
same,Quantum yields of singlet oxygen (φΔ) formed on irradiation of hypericin analogs in liposomes,[1],0.38
2-(2-Methoxyethoxy)ethyl Ester Analog of Hypericin [Example 5],Quantum yields of singlet oxygen (φΔ) formed on irradiation of hypericin analogs in liposomes,[1],0.1
